Measured values taken from article PMC7932537, “Quantitative profiling of protease specificity” (PLoS Computational Biology, 2021).

Columns and labels:
MMP-9 [1] = assay: Substrate phage display with NGS: relative probability (RP) of P3-P1' tetramer clusters; type: biochemical, human
MMP-9 [2] = biological target: MMP-9 (Homo sapiens, UniProt P14780); assay: K(obs) of individual phage substrates (set of 1369); type: biochemical; details: MMP9
MMP-2 [3] = biological target: T1, MMP-2 (Homo sapiens, UniProt P08253); assay: as above; type: biochemical; details: MMP2
T1 sequence (P08253 110-660): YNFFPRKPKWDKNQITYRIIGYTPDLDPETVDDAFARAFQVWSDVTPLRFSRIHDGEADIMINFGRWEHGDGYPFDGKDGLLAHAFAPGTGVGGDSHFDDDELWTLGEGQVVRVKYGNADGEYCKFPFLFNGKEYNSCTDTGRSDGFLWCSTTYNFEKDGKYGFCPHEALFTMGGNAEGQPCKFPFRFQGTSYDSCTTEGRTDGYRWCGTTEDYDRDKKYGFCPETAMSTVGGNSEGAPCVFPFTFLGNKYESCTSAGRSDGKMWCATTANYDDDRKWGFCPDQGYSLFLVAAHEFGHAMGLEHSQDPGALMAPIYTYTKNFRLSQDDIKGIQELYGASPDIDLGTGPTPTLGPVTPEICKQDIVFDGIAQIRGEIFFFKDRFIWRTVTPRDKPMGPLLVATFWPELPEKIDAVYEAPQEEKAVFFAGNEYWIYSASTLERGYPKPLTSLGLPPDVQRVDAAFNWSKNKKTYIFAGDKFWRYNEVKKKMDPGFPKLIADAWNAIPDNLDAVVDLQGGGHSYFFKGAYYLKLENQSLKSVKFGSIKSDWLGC

MMP-2 [4] = assay: Substrate phage display with NGS: relative probability (RP) of P3-P1' tetramer clusters; type: biochemical, human; details: MMP2;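 further: ratio of tetramer probability after protease selection to that in naive phage library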
[5] = RP according to MMP9, P3-P1' tetramer of unique physiologic MMP9 substrates from MEROPS
[6] = individual phage substrates, set of 1369 peptides, hyphen in sequence marks cleavage position
[7] = individual phage substrates, set of 1369 peptides, cleavage position marked by hyphen in sequence
[8] = RP of the P3-P1' tetramer contained in the substrate (substrate phage display with NGS)
[9] = individual phage substrate of the set of 1369 peptides, dash in the sequence marks the cleavage position
[10] = individual phage substrate of the set of 1369 peptides, cleavage position marked by '-'
[11] = RP of the P3-P1' tetramer contained in the substrate

Chain of MMP-9 (Homo sapiens, UniProt P14780) (P14780 94-707): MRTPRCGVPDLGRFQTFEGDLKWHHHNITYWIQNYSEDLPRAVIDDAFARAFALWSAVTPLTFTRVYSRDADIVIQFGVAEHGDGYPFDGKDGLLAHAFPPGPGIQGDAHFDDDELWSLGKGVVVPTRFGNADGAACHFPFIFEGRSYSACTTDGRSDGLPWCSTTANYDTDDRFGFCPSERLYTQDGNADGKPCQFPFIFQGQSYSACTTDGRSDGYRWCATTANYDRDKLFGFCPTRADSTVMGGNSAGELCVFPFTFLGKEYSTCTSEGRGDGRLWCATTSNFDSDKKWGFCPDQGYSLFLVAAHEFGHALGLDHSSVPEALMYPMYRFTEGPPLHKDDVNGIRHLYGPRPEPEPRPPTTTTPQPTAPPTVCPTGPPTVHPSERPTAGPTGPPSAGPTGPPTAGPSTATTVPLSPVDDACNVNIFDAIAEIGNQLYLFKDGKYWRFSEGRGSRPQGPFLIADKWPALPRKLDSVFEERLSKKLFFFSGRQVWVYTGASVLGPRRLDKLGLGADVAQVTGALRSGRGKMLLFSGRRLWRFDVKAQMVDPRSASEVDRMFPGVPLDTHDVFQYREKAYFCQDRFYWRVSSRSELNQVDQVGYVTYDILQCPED

PYAI [P3-P1' tetramer cluster] was tested, and the “relative probability (RP)” value (MMP-9 [1]; tetramer probability in MMP9 set / naive library, 200 nM protease, 2 h, 37°C) was 51.7522.

In the case of TITG, the “Relative probability (RP) rank” value (MMP-9 [1]; [5]) is reported as 47886 and the “relative probability (RP)” value (MMP-9 [1]; [5]) is reported as 0.16.

For TMNM, the “relative probability (RP)” value (MMP-9 [1]; MMP9, RP of the P3-P1' tetramer matching the MS detected cleavage, RP above 4.7, substrate phage display with NGS) was 6.67.

VGSL [P3-P1' tetramer cluster] was tested, and the “relative probability (RP)” value (MMP-9 [1]; tetramer projected onto MMP-9 cleavage sites determined by Prudova et al. (2010)) was 7.47.

VRLNY-LTASG was tested, and the “Kobs” value (MMP-9 [2]; [6]) was 0 M⁻¹ s⁻¹, the “Kobs” value (MMP-2 [3]; [7]) was 4763.33 M⁻¹ s⁻¹ and the “relative probability (RP)” value (MMP-2 [4]; [8]) was 12.3459.

For VRPRP-FTASG, the “Kobs” value (MMP-9 [2]; [9]) was 10866.7 M⁻¹ s⁻¹, the Kobs (MMP-2 [3]; [10]) was 12792.1 M⁻¹ s⁻¹ and the “relative probability (RP)” value (MMP-2 [4]; [11]) was 32.5323.

In the case of VRVLH-LTASG, the “Kobs” value (MMP-9 [2]; [6]) is reported as 8321.48 M⁻¹ s⁻¹, the “Kobs” value (MMP-2 [3]; [7]) is reported as 8321.48 M⁻¹ s⁻¹ and the “relative probability (RP)” value (MMP-2 [4]; [8]) is reported as 19.5348.

With VRWSW-LTASG the “Kobs” value (MMP-9 [2]; [9]) was 0 M⁻¹ s⁻¹, the Kobs (MMP-2 [3]; [10]) was 2038.8 M⁻¹ s⁻¹ and the “relative probability (RP)” value (MMP-2 [4]; [11]) was 7.878.

For VSLAY-LTASG, the “Kobs” value (MMP-9 [2]; [6]) was 113.394 M⁻¹ s⁻¹, the “Kobs” value (MMP-2 [3]; [7]) was 12792.1 M⁻¹ s⁻¹ and the “relative probability (RP)” value (MMP-2 [4]; [8]) was 25.3422.

For VSSYW-LTASG, the “Kobs” value (MMP-9 [2]; [6]) was 1981.53 M⁻¹ s⁻¹, the “Kobs” value (MMP-2 [3]; [7]) was 951.362 M⁻¹ s⁻¹ and the “relative probability (RP)” value (MMP-2 [4]; [8]) was 0.9791.

VVLMG-LTASG was tested, and the “Kobs” value (MMP-9 [2]; [9]) was 323.705 M⁻¹ s⁻¹, the Kobs (MMP-2 [3]; [10]) was 1925.41 M⁻¹ s⁻¹ and the “relative probability (RP)” value (MMP-2 [4]; [11]) was 28.5499.

With VVYRG-LTASG the “Kobs” value (MMP-9 [2]; [6]) was 2476.66 M⁻¹ s⁻¹, the “Kobs” value (MMP-2 [3]; [7]) was 2761.81 M⁻¹ s⁻¹ and the “relative probability (RP)” value (MMP-2 [4]; [8]) was 5.445.

With VYWGN-MTASG the “Kobs” value (MMP-9 [2]; [6]) was 27.918 M⁻¹ s⁻¹, the “Kobs” value (MMP-2 [3]; [7]) was 4082.43 M⁻¹ s⁻¹ and the “relative probability (RP)” value (MMP-2 [4]; [8]) was 3.723.

WDALG-ITASG was tested, and the “Kobs” value (MMP-9 [2]; [9]) was 2097.28 M⁻¹ s⁻¹, the Kobs (MMP-2 [3]; [10]) was 3850.82 M⁻¹ s⁻¹ and the “relative probability (RP)” value (MMP-2 [4]; [11]) was 18.2164.

In the case of WHPVS-LTASG, the “Kobs” value (MMP-9 [2]; [9]) is reported as 12792.1 M⁻¹ s⁻¹, the Kobs (MMP-2 [3]; [10]) is reported as 12792.1 M⁻¹ s⁻¹ and the “relative probability (RP)” value (MMP-2 [4]; [11]) is reported as 32.502.

With WKVSS-LTASG the “Kobs” value (MMP-9 [2]; [6]) was 2218.08 M⁻¹ s⁻¹, the “Kobs” value (MMP-2 [3]; [7]) was 10866.7 M⁻¹ s⁻¹ and the “relative probability (RP)” value (MMP-2 [4]; [8]) was 29.0891.

With WLPRA-VTASG the “Kobs” value (MMP-9 [2]; [9]) was 12792.1 M⁻¹ s⁻¹, the Kobs (MMP-2 [3]; [10]) was 12792.1 M⁻¹ s⁻¹ and the “relative probability (RP)” value (MMP-2 [4]; [11]) was 28.3444.

With WMPLG-MTASG the “Kobs” value (MMP-9 [2]; [9]) was 12792.1 M⁻¹ s⁻¹, the Kobs (MMP-2 [3]; [10]) was 5461.43 M⁻¹ s⁻¹ and the “relative probability (RP)” value (MMP-2 [4]; [11]) was 34.1118.

In the case of WPHGS-LTASG, the “Kobs” value (MMP-9 [2]; [9]) is reported as 0 M⁻¹ s⁻¹, the Kobs (MMP-2 [3]; [10]) is reported as 12792.1 M⁻¹ s⁻¹ and the “relative probability (RP)” value (MMP-2 [4]; [11]) is reported as 19.9233.

WPMAK-LTASG was tested, and the “Kobs” value (MMP-9 [2]; [9]) was 451.441 M⁻¹ s⁻¹, the Kobs (MMP-2 [3]; [10]) was 12792.1 M⁻¹ s⁻¹ and the “relative probability (RP)” value (MMP-2 [4]; [11]) was 21.5229.

WQYSN-LTASG was tested, and the “Kobs” value (MMP-9 [2]; [6]) was 323.705 M⁻¹ s⁻¹, the “Kobs” value (MMP-2 [3]; [7]) was 3964.21 M⁻¹ s⁻¹ and the “relative probability (RP)” value (MMP-2 [4]; [8]) was 25.2832.

In the case of WRYSN-LTASG, the “Kobs” value (MMP-9 [2]; [6]) is reported as 0 M⁻¹ s⁻¹, the “Kobs” value (MMP-2 [3]; [7]) is reported as 8941.32 M⁻¹ s⁻¹ and the “relative probability (RP)” value (MMP-2 [4]; [8]) is reported as 25.2832.

For WVMES-LTASG, the “Kobs” value (MMP-9 [2]; [9]) was 386.839 M⁻¹ s⁻¹, the Kobs (MMP-2 [3]; [10]) was 1660.66 M⁻¹ s⁻¹ and the “relative probability (RP)” value (MMP-2 [4]; [11]) was 8.775.

With YCSLP-LTASG the “Kobs” value (MMP-9 [2]; [6]) was 113.394 M⁻¹ s⁻¹, the “Kobs” value (MMP-2 [3]; [7]) was 451.441 M⁻¹ s⁻¹ and the “relative probability (RP)” value (MMP-2 [4]; [8]) was 8.6373.

For YDIHF-LTASG, the “Kobs” value (MMP-9 [2]; [9]) was 0 M⁻¹ s⁻¹, the Kobs (MMP-2 [3]; [10]) was 0 M⁻¹ s⁻¹ and the “relative probability (RP)” value (MMP-2 [4]; [11]) was 4.537.

For YDISA-LTASG, the “Kobs” value (MMP-9 [2]; [9]) was 113.394 M⁻¹ s⁻¹, the Kobs (MMP-2 [3]; [10]) was 12792.1 M⁻¹ s⁻¹ and the “relative probability (RP)” value (MMP-2 [4]; [11]) was 31.8319.

In the case of YDSRG-LTASG, the “Kobs” value (MMP-9 [2]; [9]) is reported as 231.616 M⁻¹ s⁻¹, the Kobs (MMP-2 [3]; [10]) is reported as 1239.69 M⁻¹ s⁻¹ and the “relative probability (RP)” value (MMP-2 [4]; [11]) is reported as 6.164.

In the case of YDTQH-LTASG, the “Kobs” value (MMP-9 [2]; [6]) is reported as 0 M⁻¹ s⁻¹, the “Kobs” value (MMP-2 [3]; [7]) is reported as 0 M⁻¹ s⁻¹ and the “relative probability (RP)” value (MMP-2 [4]; [8]) is reported as 2.922.

In the case of YDVYN-LTASG, the “Kobs” value (MMP-9 [2]; [9]) is reported as 7815.03 M⁻¹ s⁻¹, the Kobs (MMP-2 [3]; [10]) is reported as 3253.29 M⁻¹ s⁻¹ and the “relative probability (RP)” value (MMP-2 [4]; [11]) is reported as 19.1818.

For YEPRN-VTASG, the “Kobs” value (MMP-9 [2]; [6]) was 10866.7 M⁻¹ s⁻¹, the “Kobs” value (MMP-2 [3]; [7]) was 12792.1 M⁻¹ s⁻¹ and the “relative probability (RP)” value (MMP-2 [4]; [8]) was 26.6015.

With YKPAG-LTASG the “Kobs” value (MMP-9 [2]; [6]) was 12792.1 M⁻¹ s⁻¹, the “Kobs” value (MMP-2 [3]; [7]) was 10866.7 M⁻¹ s⁻¹ and the “relative probability (RP)” value (MMP-2 [4]; [8]) was 36.0156.

In the case of YLVRY-LTASG, the “Kobs” value (MMP-9 [2]; [6]) is reported as 12792.1 M⁻¹ s⁻¹, the “Kobs” value (MMP-2 [3]; [7]) is reported as 9740.44 M⁻¹ s⁻¹ and the “relative probability (RP)” value (MMP-2 [4]; [8]) is reported as 18.3724.

For YNWRH-LTASG, the “Kobs” value (MMP-9 [2]; [6]) was 619.843 M⁻¹ s⁻¹, the “Kobs” value (MMP-2 [3]; [7]) was 799.117 M⁻¹ s⁻¹ and the “relative probability (RP)” value (MMP-2 [4]; [8]) was 0.4087.

With YPFGS-LTASG the “Kobs” value (MMP-9 [2]; [9]) was 355.093 M⁻¹ s⁻¹, the Kobs (MMP-2 [3]; [10]) was 12792.1 M⁻¹ s⁻¹ and the “relative probability (RP)” value (MMP-2 [4]; [11]) was 21.9152.

In the case of YSATN-LTASG, the “Kobs” value (MMP-9 [2]; [6]) is reported as 484.315 M⁻¹ s⁻¹, the “Kobs” value (MMP-2 [3]; [7]) is reported as 12792.1 M⁻¹ s⁻¹ and the “relative probability (RP)” value (MMP-2 [4]; [8]) is reported as 16.0897.

In the case of YSPMD-YTASG, the “Kobs” value (MMP-9 [2]; [9]) is reported as 12792.1 M⁻¹ s⁻¹, the Kobs (MMP-2 [3]; [10]) is reported as 1660.66 M⁻¹ s⁻¹ and the “relative probability (RP)” value (MMP-2 [4]; [11]) is reported as 10.9087.

YVPTG-LTASG was tested, and the “Kobs” value (MMP-9 [2]; [9]) was 4763.33 M⁻¹ s⁻¹, the Kobs (MMP-2 [3]; [10]) was 5461.43 M⁻¹ s⁻¹ and the “relative probability (RP)” value (MMP-2 [4]; [11]) was 33.1098.

YYPRA-LTASG was tested, and the “Kobs” value (MMP-9 [2]; [9]) was 12792.1 M⁻¹ s⁻¹, the Kobs (MMP-2 [3]; [10]) was 12792.1 M⁻¹ s⁻¹ and the “relative probability (RP)” value (MMP-2 [4]; [11]) was 35.2345.
